From ChEMBL document CHEMBL4196131 (J Med Chem, 2018)
pEC50, pIC50, pKi: −log10 of the molar value.

Key:
MCF7 = experiment: cells; conditions: Homo sapiens, MCF7, 72 h
Estrogen receptor [1] = biological target: T1, Estrogen receptor (Homo sapiens, UniProt P03372); experiment: Antagonist activity at human ERalpha expressed in HEK293T cells after 24 hrs by ERE-based dual luciferase reporter gene assay; type: cell-based
T1 sequence (P03372 whole entry): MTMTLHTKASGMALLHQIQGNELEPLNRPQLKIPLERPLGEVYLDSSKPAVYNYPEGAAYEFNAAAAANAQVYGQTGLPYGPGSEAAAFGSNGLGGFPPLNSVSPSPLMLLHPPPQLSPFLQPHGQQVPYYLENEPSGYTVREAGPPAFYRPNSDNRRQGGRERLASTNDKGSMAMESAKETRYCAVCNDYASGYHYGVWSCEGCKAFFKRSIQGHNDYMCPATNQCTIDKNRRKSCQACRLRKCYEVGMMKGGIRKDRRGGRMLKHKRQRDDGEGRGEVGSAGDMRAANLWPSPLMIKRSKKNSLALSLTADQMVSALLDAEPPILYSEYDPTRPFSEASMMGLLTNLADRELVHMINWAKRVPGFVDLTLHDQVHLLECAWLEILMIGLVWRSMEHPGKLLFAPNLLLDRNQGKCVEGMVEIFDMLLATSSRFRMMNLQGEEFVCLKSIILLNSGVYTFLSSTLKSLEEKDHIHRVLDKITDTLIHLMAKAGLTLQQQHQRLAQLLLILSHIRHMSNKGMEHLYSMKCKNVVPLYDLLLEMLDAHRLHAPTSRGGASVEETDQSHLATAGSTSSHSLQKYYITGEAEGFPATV

Estrogen receptor beta [2] = biological target: T2, Estrogen receptor beta (Homo sapiens, UniProt Q92731); experiment: Agonist activity at human ERbeta expressed in HEK293T cells after 24 hrs by ERE-based dual luciferase reporter gene assay relative to E2; type: cell-based
T2 sequence (Q92731 whole entry): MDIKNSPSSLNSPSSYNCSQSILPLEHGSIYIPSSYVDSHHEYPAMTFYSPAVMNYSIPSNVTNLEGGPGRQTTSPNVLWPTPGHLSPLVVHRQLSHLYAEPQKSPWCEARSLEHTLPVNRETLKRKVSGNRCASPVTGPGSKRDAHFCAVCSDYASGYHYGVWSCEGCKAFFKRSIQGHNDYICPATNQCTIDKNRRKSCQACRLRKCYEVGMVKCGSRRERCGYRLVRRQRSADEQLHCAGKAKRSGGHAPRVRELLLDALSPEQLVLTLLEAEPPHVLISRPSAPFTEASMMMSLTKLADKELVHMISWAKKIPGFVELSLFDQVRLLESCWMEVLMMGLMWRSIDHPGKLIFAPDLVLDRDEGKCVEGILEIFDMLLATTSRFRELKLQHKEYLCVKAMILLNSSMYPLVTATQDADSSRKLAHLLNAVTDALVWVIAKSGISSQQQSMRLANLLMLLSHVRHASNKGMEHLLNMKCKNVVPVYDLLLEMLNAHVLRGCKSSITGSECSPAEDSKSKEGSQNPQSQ

Mus musculus = organism: Mus musculus; experiment: Inhibition of NFkappaB in mouse RAW 264.7 cells assessed as reduction in LPS induced NO production at 10 uM after 24 hrs by Griess assay relative to control; type: cell-based
Estrogen receptor beta [3] = biological target: T2, Estrogen receptor beta; experiment: Antagonist activity at human ERbeta expressed in HEK293T cells after 24 hrs by ERE-based dual luciferase reporter gene assay relative to E2; type: cell-based; set-up: concentration or dose not given beside the values
[4] = biological target: T3, Estrogen receptor (Homo sapiens) (UniProt P03372); experiment: Agonist activity at human ERalpha expressed in HEK293T cells after 24 hrs by ERE-based dual luciferase reporter gene assay relative to E2; type: cell-based
T3 sequence (whole entry): T1 sequence (P03372 whole entry)

[5] = Inhibition of NFkappaB in mouse RAW 264.7 cells assessed as reduction in LPS induced NO production after 24 hrs by Griess assay; type: cell-based; conditions: RAW264.7, 24 h
Estrogen receptor beta [6] = biological target: T2, Estrogen receptor beta; experiment: Agonist activity at human ERbeta expressed in HEK293T cells after 24 hrs by ERE-based dual luciferase reporter gene assay; type: cell-based
[7] = biological target: T3, Estrogen receptor (Homo sapiens); experiment: Antagonist activity at human ERalpha expressed in HEK293T cells after 24 hrs by ERE-based dual luciferase reporter gene assay relative to E2; type: cell-based
Estrogen receptor [8] = biological target: T1, Estrogen receptor; experiment: Agonist activity at human ERalpha expressed in HEK293T cells after 24 hrs by ERE-based dual luciferase reporter gene assay; type: cell-based
Estrogen receptor beta [9] = biological target: T2, Estrogen receptor beta; experiment: Antagonist activity at human ERbeta expressed in HEK293T cells after 24 hrs by ERE-based dual luciferase reporter gene assay; type: cell-based
Estrogen receptor [10] = biological target: T1, Estrogen receptor; experiment: Binding affinity to human ERalpha LBD after 2 hrs in absence of light by competitive fluorometric binding assay
Estrogen receptor beta [11] = biological target: T2, Estrogen receptor beta; experiment: Binding affinity to human ERbeta LBD after 2 hrs in absence of light by competitive fluorometric binding assay

SMILES	pIC50 (MCF7)	pIC50 (Estrogen receptor [1])	Efficacy (Estrogen receptor beta [2]) [%]	inhibition (Mus musculus) [%]	Efficacy (Estrogen receptor beta [3]) [%]	Efficacy [4] [%]	pIC50 [5]	pEC50 (Estrogen receptor beta [6])	Efficacy [7] [%]	pEC50 (Estrogen receptor [8])	pIC50 (Estrogen receptor beta [9])	pKi (Estrogen receptor [10])	pKi (Estrogen receptor beta [11])
Cc1ccc(OS(=O)(=O)C2CC3OC2C(c2ccc(/C=C/c4cc(O)cc(O)c4)cc2)=C3c2ccc(O)cc2)cc1 (stereo unspecified)	5.04	8.70	29	42.3	42	77	4.90	6.11	1	7.15	7.16		
O=S(=O)(Oc1ccccc1C(F)(F)F)C1CC2OC1C(c1ccc(/C=C/c3cc(O)cc(O)c3)cc1)=C2c1ccc(O)cc1 (stereo unspecified)	4.74		48	38.5	82	-24	4.76	5.54	3			6.30	
Cc1cccc(OS(=O)(=O)C2CC3OC2C(c2ccc(/C=C/c4cc(O)cc(O)c4)cc2)=C3c2ccc(O)cc2)c1 (stereo unspecified)	4.79	6.02	-3	68.4	46	22	5.62		2		5.51		
O=S(=O)(Oc1ccc(Cl)cc1)C1CC2OC1C(c1ccc(/C=C/c3cc(O)cc(O)c3)cc1)=C2c1ccc(O)cc1 (stereo unspecified)	4.75	7.21	7	62.1	33	-5	5.19		11		5.99		
O=S(=O)(Oc1cccc(C(F)(F)F)c1)C1CC2OC1C(c1ccc(/C=C/c3cc(O)cc(O)c3)cc1)=C2c1ccc(O)cc1 (stereo unspecified)	4.94	7.14	29	41.6	31	-7	4.84	5.76	-10		7.38		
O=S(=O)(Oc1ccc(/C=C/c2ccccc2)cc1)C1CC2OC1C(c1ccc(O)cc1)=C2c1ccc(O)cc1 (stereo unspecified)	5.08	6.83	25	72.4	74	6	5.65	7.51	54				
O=S(=O)(Oc1ccc(Br)cc1)C1CC2OC1C(c1ccc(/C=C/c3cc(O)cc(O)c3)cc1)=C2c1ccc(O)cc1 (stereo unspecified)	4.77	7.21	10	22	43	-9	4.78		15		5.60		
O=S(=O)(Oc1cccc(/C=C/c2cc(O)cc(O)c2)c1)C1CC2OC1C(c1ccc(O)cc1)=C2c1ccc(O)cc1 (stereo unspecified)	4.75	5.85	62	24.8	93	15	4.78	6.13	29				5.34
O=S(=O)(Oc1cccc(Br)c1)C1CC2OC1C(c1ccc(/C=C/c3cc(O)cc(O)c3)cc1)=C2c1ccc(O)cc1 (stereo unspecified)	4.70	5.62	-2	60.9	65	3	5.60		21				7.30
O=S(=O)(Oc1ccc(F)cc1)C1CC2OC1C(c1ccc(/C=C/c3cc(O)cc(O)c3)cc1)=C2c1ccc(O)cc1 (stereo unspecified)	4.88	8.30	45	71.9	98	16	5.05	6.56	7				
O=S(=O)(Oc1ccccc1Cl)C1CC2OC1C(c1ccc(/C=C/c3cc(O)cc(O)c3)cc1)=C2c1ccc(O)cc1 (stereo unspecified)	4.39	6.78	25	60.9	45	79	5.30	7.20	49	6.56	5.37		
O=S(=O)(Oc1cccc(Cl)c1)C1CC2OC1C(c1ccc(/C=C/c3cc(O)cc(O)c3)cc1)=C2c1ccc(O)cc1 (stereo unspecified)	4.89	6.03	60	62.1	91	16	5.67	8.70	4				
O=S(=O)(Oc1ccc(/C=C/c2cc(O)cc(O)c2)cc1)C1CC2OC1C(c1ccc(O)cc1)=C2c1ccc(O)cc1 (stereo unspecified)	4.98	7.72	51	81	99	-9	6.03	6.71	7				
COc1cc(/C=C/c2ccc(C3=C(c4ccc(O)cc4)C4CC(S(=O)(=O)Oc5cccc(OC)c5)C3O4)cc2)cc(OC)c1 (stereo unspecified)	4.11		37	60.1	39	-2	5.90	6.03	32		6.19		
Cc1ccccc1OS(=O)(=O)C1CC2OC1C(c1ccc(/C=C/c3cc(O)cc(O)c3)cc1)=C2c1ccc(O)cc1 (stereo unspecified)	4.25	8.00	36	39.1	100	84	4.55	6.62	36	5.90			
CCc1ccccc1OS(=O)(=O)C1CC2OC1C(c1ccc(/C=C/c3cc(OC)cc(OC)c3)cc1)=C2c1ccc(O)cc1 (stereo unspecified)	4.30	8.52	20	65.4	72	18	6.10	8.05	37	6.84			
O=S(=O)(Oc1ccc(-c2ccccc2)cc1)C1CC2OC1C(c1ccc(/C=C/c3cc(O)cc(O)c3)cc1)=C2c1ccc(O)cc1 (stereo unspecified)	5.11		82	43	97	41	4.73	7.37	68	5.31			
